{"source": "ChEMBL document CHEMBL5053510", "about": "“Discovery of AS-1763: A Potent, Selective, Noncovalent, and Orally Available Inhibitor of Bruton's Tyrosine Kinase” (J Med Chem, 2021)", "tested_on": "OCI-Ly10", "test": "Antiproliferative activity against human OCILY10 cells harboring BTK C481S mutant […] gene assessed as reduction in cell viability after 96 hrs", "format": "functional, cell-based", "conditions": "OCI-Ly10, 96 h"}
{"compound": "C=CC(=O)N1CCC[C@@H](n2nc(-c3ccc(Oc4ccccc4)cc3)c3c(N)ncnc32)C1", "note": "[IBRUTINIB]", "values": [{"measurement": "IC50", "result": 1030, "unit": "nM"}]}
